Laboratory results as given in PubChem BioAssay AID190 (DTP/NCI, 2004).
Where “and” joins values, the source holds several entries; their conditions need not be identical. Identical values can stand only once. Inconclusive results and toxic doses are left out.

Test system: AKR/Lw mice, AKR lymphoma ip, median survival T/C
Experiment: NCI In Vivo Anticancer Drug Screen. Data for tumor model Lymphoma AKR (Transplanted) (intraperitoneal) in AKR/Lw mice
Details: endpoint: median survival time, higher = longer survival
Procedure: The antitumor activity of compounds was measured in mice bearing transplantable tumors. Survival or tumor size were measured and the results are expressed as the measurement made in the treated group (T) divided by the measurement made in the vehicle treated control group (C). The tumor model used in this assay is Lymphoma AKR (Transplanted) (intraperitoneal) in AKR/Lw mice

[1] = dose: 100.0 mg/kg/injection, schedule: Q01DX001 (ip), vehicle: Klucel (hydroxypropylcellulose) (HPC)
[2] = dose: 100.0 mg/kg/injection, schedule: Q04DX003 (ip), vehicle: Klucel (hydroxypropylcellulose) (HPC)
[3] = dose: 200.0 mg/kg/injection, schedule: Q01DX001 (ip), vehicle: Klucel (hydroxypropylcellulose) (HPC)
[4] = dose: 200.0 mg/kg/injection, schedule: Q04DX003 (ip), vehicle: Klucel (hydroxypropylcellulose) (HPC)
[5] = dose: 400.0 mg/kg/injection, schedule: Q01DX001 (ip), vehicle: Klucel (hydroxypropylcellulose) (HPC)
[6] = dose: 400.0 mg/kg/injection, schedule: Q04DX003 (ip), vehicle: Klucel (hydroxypropylcellulose) (HPC)
[7] = dose: 100.0 mg/kg/injection, schedule: Q01DX001 (ip), vehicle: saline

Q: For O=P1(N(CCCl)CCCl)NCCCO1 (stereo not given), which T/C (dose: 0.5 mg/kg/injection, schedule: Q01DX015 (ip), vehicle: saline) is on record?
A: 117 % of control

Q: What about the T/C (dose: 1.0 mg/kg/injection, schedule: Q01DX015 (ip), vehicle: saline) of the same compound?
A: 108 % of control

Q: What about the T/C (dose: 1.5 mg/kg/injection, schedule: Q04DX003 (ip), vehicle: saline) of the same compound?
A: 91 % of control

Q: What about the T/C (dose: 2.0 mg/kg/injection, schedule: Q01DX015 (ip), vehicle: saline) of the same compound?
A: 108 % of control

Q: And the T/C (dose: 2.0 mg/kg/injection, schedule: Q03HX032 (ip), vehicle: saline)?
A: 119 % of control

Q: What about the T/C (dose: 3.0 mg/kg/injection, schedule: Q04DX003 (ip), vehicle: saline) of the same compound?
A: 93 % of control

Q: And the T/C (dose: 3.1 mg/kg/injection, schedule: Q01DX009 (ip), vehicle: saline)?
A: 100 % of control and 102 % of control

Q: And the T/C (dose: 4.0 mg/kg/injection, schedule: Q03HX032 (ip), vehicle: saline)?
A: 117 % of control

Q: What about the T/C (dose: 6.0 mg/kg/injection, schedule: Q01DX009 (ip), vehicle: saline) of the same compound?
A: 97 % of control

Q: What about the T/C (dose: 6.0 mg/kg/injection, schedule: Q04DX003 (ip), vehicle: saline) of the same compound?
A: 93 % of control

Q: What about the T/C (dose: 6.2 mg/kg/injection, schedule: Q04DX003 (ip), vehicle: saline) of the same compound?
A: 97 % of control

Q: And the T/C (dose: 6.25 mg/kg/injection, schedule: Q07DX005 (ip), vehicle: saline)?
A: 112 % of control

Q: What about the T/C (dose: 7.0 mg/kg/injection, schedule: Q01DX015 (ip), vehicle: saline) of the same compound?
A: 88 % of control

Q: What about the T/C (dose: 8.0 mg/kg/injection, schedule: Q03HX032 (ip), vehicle: saline) of the same compound?
A: 112 % of control

Q: And the T/C (dose: 10.0 mg/kg/injection, schedule: Q01DX009 (ip), vehicle: saline)?
A: 110 % of control and 118 % of control

Q: What about the T/C (dose: 11.0 mg/kg/injection, schedule: Q01DX015 (ip), vehicle: saline) of the same compound?
A: 100 % of control

Q: And the T/C (dose: 12.0 mg/kg/injection, schedule: Q04DX003 (ip), vehicle: saline)?
A: 97 % of control and 105 % of control

Q: What about the T/C (dose: 12.5 mg/kg/injection, schedule: Q01DX001 (ip), vehicle: saline) of the same compound?
A: 92 % of control and 104 % of control and 116 % of control

Q: And the T/C (dose: 20.0 mg/kg/injection, schedule: Q07DX004 (ip), vehicle: saline)?
A: 120 % of control

Q: And the T/C (dose: 24.0 mg/kg/injection, schedule: Q01DX015 (ip), vehicle: saline)?
A: 100 % of control and 117 % of control

Q: And the T/C (dose: 25.0 mg/kg/injection, schedule: Q07DX003 (ip), vehicle: saline)?
A: 152 % of control

Q: What about the T/C (dose: 25.0 mg/kg/injection, schedule: Q10DX002 (ip), vehicle: saline) of the same compound?
A: 152 % of control

Q: And the T/C (dose: 25.0 mg/kg/injection, schedule: Q10DX004 (ip), vehicle: saline)?
A: 119 % of control

Q: And the T/C (dose: 25.0 mg/kg/injection, schedule: Q14DX003 (ip), vehicle: saline)?
A: 178 % of control

Q: And the T/C (dose: 25.0 mg/kg/injection, schedule: Q14DX004 (ip), vehicle: saline)?
A: 103 % of control

Q: What about the T/C (dose: 33.0 mg/kg/injection, schedule: Q09DX002 (ip), vehicle: saline) of the same compound?
A: 188 % of control

Q: And the T/C (dose: 37.5 mg/kg/injection, schedule: Q12DX002 (ip), vehicle: saline)?
A: 172 % of control

Q: What about the T/C (dose: 44.0 mg/kg/injection, schedule: Q07DX004 (ip), vehicle: saline) of the same compound?
A: 227 % of control

Q: What about the T/C (dose: 50.0 mg/kg/injection, schedule: Q09DX002 (ip), vehicle: saline) of the same compound?
A: 160 % of control and 234 % of control (2×)

Q: What about the T/C (dose: 50.0 mg/kg/injection, schedule: Q10DX002 (ip), vehicle: saline) of the same compound?
A: 186 % of control

Q: What about the T/C (dose: 50.0 mg/kg/injection, schedule: Q12DX002 (ip), vehicle: saline) of the same compound?
A: 164 % of control

Q: And the T/C (dose: 50.0 mg/kg/injection, schedule: Q14DX003 (ip), vehicle: saline)?
A: 177 % of control

Q: What about the T/C (dose: 50.0 mg/kg/injection, schedule: Q14DX004 (ip), vehicle: saline) of the same compound?
A: 173 % of control

Q: And the T/C (dose: 50.0 mg/kg/injection, schedule: Q## X002 (ip), vehicle: saline)?
A: 164 % of control

Q: What about the T/C (dose: 65.5 mg/kg/injection, schedule: Q04DX003 (ip), vehicle: saline) of the same compound?
A: 236 % of control

Q: And the T/C (dose: 67.0 mg/kg/injection, schedule: Q07DX004 (ip), vehicle: saline)?
A: 232 % of control

Q: What about the T/C (dose: 67.0 mg/kg/injection, schedule: Q09DX002 (ip), vehicle: saline) of the same compound?
A: 234 % of control

Q: And the T/C (dose: 75.0 mg/kg/injection, schedule: Q01DX001 (ip), vehicle: saline)?
A: 180 % of control and 226 % of control

Q: What about the T/C (dose: 75.0 mg/kg/injection, schedule: Q01DX001 (ip), vehicle: water) of the same compound?
A: 153 % of control

Q: What about the T/C (dose: 75.0 mg/kg/injection, schedule: Q04DX003 (ip), vehicle: saline) of the same compound?
A: 180 % of control

Q: And the T/C (dose: 75.0 mg/kg/injection, schedule: Q07DX003 (ip), vehicle: saline)?
A: 200 % of control and 210 % of control and 231 % of control

Q: What about the T/C (dose: 75.0 mg/kg/injection, schedule: Q07DX005 (ip), vehicle: saline) of the same compound?
A: 181 % of control

Q: What about the T/C (dose: 75.0 mg/kg/injection, schedule: Q12DX002 (ip), vehicle: saline) of the same compound?
A: 226 % of control

Q: And the T/C (dose: 100.0 mg/kg/injection, schedule: Q01DX001 (ip), vehicle: saline with Tween-80)?
A: 154 % of control

Q: What about the T/C (dose: 100.0 mg/kg/injection, schedule: Q01DX009 (ip), vehicle: saline) of the same compound?
A: 112 % of control

Q: And the T/C (dose: 100.0 mg/kg/injection, schedule: Q07DX004 (ip), vehicle: saline)?
A: 200 % of control

Q: What about the T/C (dose: 100.0 mg/kg/injection, schedule: Q07DX005 (ip), vehicle: saline) of the same compound?
A: 95 % of control

Q: And the T/C (dose: 100.0 mg/kg/injection, schedule: Q09DX002 (ip), vehicle: saline)?
A: 117 % of control and 228 % of control (2×)

Q: What about the T/C (dose: 100.0 mg/kg/injection, schedule: Q10DX004 (ip), vehicle: saline) of the same compound?
A: 175 % of control

Q: And the T/C (dose: 100.0 mg/kg/injection, schedule: Q14DX003 (ip), vehicle: saline)?
A: 235 % of control

Q: And the T/C (dose: 125.0 mg/kg/injection, schedule: Q07DX003 (ip), vehicle: saline)?
A: 105 % of control and 110 % of control

Q: What about the T/C (dose: 150.0 mg/kg/injection, schedule: Q01DX001 (ip), vehicle: saline with Tween-80) of the same compound?
A: 179 % of control

Q: And the T/C (dose: 150.0 mg/kg/injection, schedule: Q01DX001 (ip), vehicle: water)?
A: 171 % of control and 196 % of control

Q: What about the T/C (dose: 150.0 mg/kg/injection, schedule: Q07DX005 (ip), vehicle: saline) of the same compound?
A: 95 % of control

Q: And the T/C (dose: 150.0 mg/kg/injection, schedule: Q10DX004 (ip), vehicle: saline)?
A: 209 % of control

Q: And the T/C (dose: 200.0 mg/kg/injection, schedule: Q01DX009 (ip), vehicle: saline)?
A: 100 % of control

Q: What about the T/C (dose: 200.0 mg/kg/injection, schedule: Q09DX002 (ip), vehicle: saline) of the same compound?
A: 103 % of control

Q: And the T/C (dose: 200.0 mg/kg/injection, schedule: Q10DX002 (ip), vehicle: saline)?
A: 114 % of control

Q: And the T/C (dose: 300.0 mg/kg/injection, schedule: Q01DX001 (ip), vehicle: water)?
A: 171 % of control and 188 % of control

Q: What about the T/C (dose: 500.0 mg/kg/injection, schedule: Q01DX001 (ip), vehicle: saline) of the same compound?
A: 100 % of control

Q: How did the T/C [1] turn out when O=C(Cc1ccc2cc3c(cc2c1)OCO3)NCCc1ccc2c(c1)OCO2 was run?
A: 92 % of control

Q: What about the T/C [2] of the same compound?
A: 100 % of control

Q: And the T/C [3]?
A: 94 % of control

Q: And the T/C [4]?
A: 96 % of control

Q: What about the T/C [5] of the same compound?
A: 100 % of control

Q: What about the T/C [6] of the same compound?
A: 92 % of control

Q: How did the T/C (dose: 50.0 mg/kg/injection, schedule: Q04DX003 (ip), vehicle: Klucel (hydroxypropylcellulose) (HPC)) turn out when Nc1ccc(OCc2ccc(S(=O)(=O)F)c(Cl)c2)c(Cl)c1 was run?
A: 88 % of control

Q: What about the T/C [1] of the same compound?
A: 87 % of control

Q: And the T/C [2]?
A: 86 % of control

Q: What about the T/C (dose: 150.0 mg/kg/injection, schedule: Q01DX009 (ip), vehicle: Klucel (hydroxypropylcellulose) (HPC)) of the same compound?
A: 112 % of control

Q: And the T/C [3]?
A: 90 % of control

Q: And the T/C [4]?
A: 111 % of control

Q: What does the source list for CC(=O)CCN1C(=O)c2ccccc2C1=O?
A: T/C [1]: 105 % of control; T/C [3]: 105 % of control; T/C [4]: 97 % of control; T/C [5]: 102 % of control; T/C [6]: 89 % of control

Q: What does the source list for CC(=O)c1ccc2ccccc2c1O?
A: T/C (dose: 25.0 mg/kg/injection, schedule: Q01DX001 (ip), vehicle: Klucel (hydroxypropylcellulose) (HPC)): 102 % of control; T/C (dose: 50.0 mg/kg/injection, schedule: Q01DX001 (ip), vehicle: Klucel (hydroxypropylcellulose) (HPC)): 88 % of control; T/C [3]: 88 % of control; T/C (dose: 200.0 mg/kg/injection, schedule: Q01DX001 (ip), vehicle: other): 104 % of control; T/C (dose: 400.0 mg/kg/injection, schedule: Q01DX001 (ip), vehicle: other): 111 % of control

Q: Which results are given for O=C(O)CCC(=O)Nc1cccc(Oc2ccc([N+](=O)[O-])cc2[N+](=O)[O-])c1?
A: T/C [1]: 100 % of control; T/C [3]: 87 % of control; T/C [5]: 90 % of control

Q: Which T/C (dose: 25.0 mg/kg/injection, schedule: Q01DX001 (ip), vehicle: saline) does the source give for CN(C)C(C)(C)CNc1ccc(C(=O)O)cc1 here?
A: 88 % of control

Q: And the T/C (dose: 50.0 mg/kg/injection, schedule: Q01DX001 (ip), vehicle: saline)?
A: 91 % of control and 95 % of control

Q: What about the T/C [7] of the same compound?
A: 97 % of control and 91 % of control

Q: With CCCCCCCCCCCCCCCC(=O)N(CCC#N)CCCCCCCCCN(CCC#N)C(=O)CCCCCCCCCCCCCCC as the compound, how does the T/C [7] read?
A: 116 % of control

Q: And the T/C (dose: 200.0 mg/kg/injection, schedule: Q01DX001 (ip), vehicle: saline)?
A: 94 % of control
